Source: PubChem BioAssay (NCI)
“And” between values parts separate entries of the source, which are not always exact repeats. Equal values may be shown once.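 Growth conditions: 96-well plates. Treatment: test compound, 48 hours, 5 concentrations. Analysis: linear interpolation between bracketing concentrations; unreached endpoints set to highest concentration. GI50 = concentration required for 50% inhibition of growth. The concentration for full growth arrest is given as TGI.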

Columns and labels:
Assay in all cases: NCI tumour cell line growth inhibition, 48 h
[1] = system: RPMI-8226 leukemia
[2] = system: SW-620 colon
[3] = system: SF-268 CNS
[4] = system: NCI-H226 lung
[5] = system: HOP-62 NSCLC
[6] = system: OVCAR-5 ovarian
[7] = system: CCRF-CEM leukemia
[8] = system: SK-MEL-5 melanoma
[9] = system: A498 renal
[10] = system: A549 NSCLC
[11] = system: HCT-116 colon
[12] = system: SK-OV-3 ovarian
[13] = system: NCI-H522 lung
[14] = system: HCT-15 colon
[15] = system: U251 CNS
[16] = system: OVCAR-8 ovarian
[17] = system: OVCAR-3 ovarian
[18] = system: NCI-H23 lung
[19] = system: CAKI-1 renal
[20] = system: SK-MEL-2 melanoma
[21] = system: MCF7 breast
[22] = system: HT29 colon
[23] = system: NCI/ADR-RES ovarian
[24] = system: EKVX NSCLC
[25] = system: SNB-75 CNS
[26] = system: COLO 205 colon
[27] = system: PC-3 prostate
[28] = system: HCC-2998 colon
[29] = system: UACC-62 melanoma
[30] = system: M14 melanoma
[31] = system: SN12C renal
[32] = system: MOLT-4 leukemia
[33] = system: SF-295 CNS
[34] = system: K-562 leukemia
[35] = system: HL-60(TB) leukemia
[36] = system: SK-MEL-28 melanoma
[37] = system: SNB-19 CNS
[38] = system: SR leukemia
[39] = system: OVCAR-4 ovarian
[40] = system: KM12 colon
[41] = system: LOX IMVI melanoma
[42] = system: HS 578T breast
[43] = system: MDA-MB-435
[44] = system: UACC-257 melanoma
[45] = system: DU-145 prostate
[46] = system: NCI-H460 lung
[47] = system: MALME-3M melanoma
[48] = system: IGROV1 ovarian
[49] = system: ACHN renal
[50] = system: MDA-MB-231 breast
[51] = system: TK-10 renal
[52] = system: T-47D breast
[53] = system: SF-539 CNS
[54] = system: RXF 393 renal
[55] = system: HOP-92 NSCLC
[56] = system: 786-0 renal
[57] = system: UO-31 renal

CCCC(=O)Nc1cc(/C=C/C(=O)N2C[C@H]3C[C@@]34C2=CC(=O)c2[nH]cc(C)c24)n(C)c1 was tested, and the TGI [1] was 0.164 µM, the TGI [2] was 25 µM and 7.75 µM and the TGI [3] was greater than 100 µM. For the same molecule, the TGI [4] was 0.25 µM, the TGI [5] was 25 µM and the TGI [6] was 25 µM. For the same molecule, the TGI [7] was less than 0.0025 µM, the TGI [8] was 1.04 µM and the TGI [9] was less than 0.0025 µM. For the same molecule, the TGI [10] was 25 µM, the TGI [11] was 11 µM and the TGI [12] was 0.352 µM and 0.861 µM. It also gave a TGI [13] of less than 0.0025 µM, a TGI [14] of 25 µM and a TGI [15] of 1.11 µM. For the same molecule, the TGI [16] was less than 0.0025 µM, the TGI [17] was 0.00947 µM and the TGI [18] was 0.00558 µM. It also gave a TGI [19] of less than 0.0025 µM, a TGI [20] of 25 µM and a TGI [21] of 25 µM. For the same molecule, the TGI [22] was 15.4 µM, the TGI [23] was 0.11 µM and 0.0507 µM and the TGI [24] was 1.15 µM. For the same molecule, the TGI [25] was 0.00527 µM, the TGI [26] was 0.281 µM and the TGI [27] was 25 µM. For the same molecule, the TGI [28] was less than 0.0025 µM, the TGI [29] was less than 0.0025 µM and the TGI [30] was 25 µM. The TGI [31] was 0.257 µM, the TGI [32] was less than 0.0025 µM and the TGI [33] was 0.388 µM. The TGI [34] was 25 µM, the TGI [35] was less than 0.0025 µM and the TGI [36] was 0.00678 µM. The TGI [37] was 2.86 µM and 13.2 µM, the TGI [38] was less than 0.0025 µM and the TGI [39] was 0.0111 µM. The TGI [40] was 0.267 µM and 1.12 µM.

With Brc1ccc2c(c1)c(-c1nc(-c3c[nH]c4ncccc34)cs1)cn2CCCN1CCCCC1 the GI50 [2] was 1.75 µM, the TGI [2] was 3.31 µM and the GI50 [4] was 1.89 µM. For the same molecule, the TGI [4] was 5.01 µM, the GI50 [41] was 1.68 µM and the TGI [41] was 3.08 µM. For the same molecule, the GI50 [8] was 1.74 µM, the TGI [8] was 3.14 µM and the GI50 [42] was 2.13 µM. It also gave a TGI [42] of 5.55 µM, a GI50 [9] of 2.32 µM and a TGI [9] of 9.16 µM. For the same molecule, the GI50 [43] was 1.86 µM, the TGI [43] was 3.49 µM and the GI50 [44] was 1.9 µM. For the same molecule, the TGI [44] was 3.5 µM, the GI50 [45] was 1.77 µM and the TGI [45] was 3.18 µM. It also gave a GI50 [14] of 1.66 µM, a TGI [14] of 3.08 µM and a GI50 [17] of 1.89 µM. It also gave a TGI [17] of 3.43 µM, a GI50 [18] of 1.75 µM and a TGI [18] of 3.37 µM. It also gave a GI50 [21] of 1.62 µM, a TGI [21] of 3.11 µM and a GI50 [25] of 1.85 µM. The TGI [25] was 4.59 µM, the GI50 [28] was 1.82 µM and the TGI [28] was 3.41 µM. For the same molecule, the GI50 [30] was 1.79 µM, the TGI [30] was 3.39 µM and the GI50 [35] was 1.9 µM. For the same molecule, the TGI [35] was 4.57 µM, the GI50 [46] was 1.78 µM and the TGI [46] was 3.37 µM. For the same molecule, the GI50 [39] was 2.24 µM, the TGI [39] was 4.88 µM and the GI50 [40] was 1.82 µM. It also gave a TGI [40] of 3.48 µM.

Cc1cc(S(=O)(=O)Nc2nc3cc(-c4ccsc4)sc3c(=O)n2N)c(S)cc1Cl gave a GI50 [1] greater than 100 µM, a TGI [1] greater than 100 µM and a GI50 [47] greater than 100 µM. For the same molecule, the TGI [47] was greater than 100 µM, the GI50 [2] was greater than 100 µM and the TGI [2] was greater than 100 µM. It also gave a GI50 [3] of 35.7 µM, a TGI [3] greater than 100 µM and a GI50 [4] of 49.7 µM. The TGI [4] was greater than 100 µM, the GI50 [5] was 50 µM and the TGI [5] was greater than 100 µM. It also gave a GI50 [6] greater than 100 µM, a TGI [6] greater than 100 µM and a GI50 [48] greater than 100 µM. For the same molecule, the TGI [48] was greater than 100 µM, the GI50 [7] was 64.7 µM and the TGI [7] was greater than 100 µM. It also gave a GI50 [41] of 60.7 µM, a TGI [41] greater than 100 µM and a GI50 [8] of 38.4 µM. For the same molecule, the TGI [8] was greater than 100 µM, the GI50 [42] was 35.7 µM and the TGI [42] was greater than 100 µM. The GI50 [10] was 47.4 µM, the TGI [10] was greater than 100 µM and the GI50 [43] was 85.3 µM. For the same molecule, the TGI [43] was greater than 100 µM, the GI50 [11] was 47.4 µM and the TGI [11] was greater than 100 µM. For the same molecule, the GI50 [44] was greater than 100 µM, the TGI [44] was greater than 100 µM and the GI50 [12] was 88.6 µM. For the same molecule, the TGI [12] was greater than 100 µM, the GI50 [13] was greater than 100 µM and the TGI [13] was greater than 100 µM. The GI50 [45] was greater than 100 µM, the TGI [45] was greater than 100 µM and the GI50 [14] was 59.2 µM. It also gave a TGI [14] greater than 100 µM, a GI50 [15] of 34.1 µM and a TGI [15] greater than 100 µM. For the same molecule, the GI50 [16] was 68.1 µM, the TGI [16] was greater than 100 µM and the GI50 [17] was greater than 100 µM. It also gave a TGI [17] greater than 100 µM, a GI50 [18] greater than 100 µM and a TGI [18] greater than 100 µM. For the same molecule, the GI50 [49] was 30.4 µM, the TGI [49] was greater than 100 µM and the GI50 [19] was greater than 100 µM. The TGI [19] was greater than 100 µM, the GI50 [20] was greater than 100 µM and the TGI [20] was greater than 100 µM. It also gave a GI50 [50] of 15.7 µM, a TGI [50] greater than 100 µM and a GI50 [21] of 46.9 µM. It also gave a TGI [21] greater than 100 µM, a GI50 [22] of 30.4 µM and a TGI [22] greater than 100 µM. For the same molecule, the GI50 [23] was 50.6 µM, the TGI [23] was greater than 100 µM and the GI50 [24] was greater than 100 µM. For the same molecule, the TGI [24] was greater than 100 µM, the GI50 [25] was greater than 100 µM and the TGI [25] was greater than 100 µM. For the same molecule, the GI50 [26] was greater than 100 µM, the TGI [26] was greater than 100 µM and the GI50 [51] was greater than 100 µM. The TGI [51] was greater than 100 µM, the GI50 [27] was 47.6 µM and the TGI [27] was greater than 100 µM. The GI50 [28] was 48.4 µM, the TGI [28] was greater than 100 µM and the GI50 [29] was 24.8 µM. The TGI [29] was 72.2 µM, the GI50 [30] was greater than 100 µM and the TGI [30] was greater than 100 µM. The GI50 [52] was 28.8 µM, the TGI [52] was greater than 100 µM and the GI50 [31] was greater than 100 µM. The TGI [31] was greater than 100 µM, the GI50 [32] was 68 µM and the TGI [32] was greater than 100 µM. For the same molecule, the GI50 [53] was 67.4 µM, the TGI [53] was greater than 100 µM and the GI50 [33] was 29.7 µM. It also gave a TGI [33] greater than 100 µM, a GI50 [34] of 52 µM and a TGI [34] greater than 100 µM. For the same molecule, the GI50 [35] was greater than 100 µM, the TGI [35] was greater than 100 µM and the GI50 [54] was greater than 100 µM. For the same molecule, the TGI [54] was greater than 100 µM, the GI50 [55] was greater than 100 µM and the TGI [55] was greater than 100 µM. For the same molecule, the GI50 [46] was 31.4 µM, the TGI [46] was greater than 100 µM and the GI50 [56] was 90.9 µM. For the same molecule, the TGI [56] was greater than 100 µM, the GI50 [37] was 86 µM and the TGI [37] was greater than 100 µM. For the same molecule, the GI50 [38] was greater than 100 µM, the TGI [38] was greater than 100 µM and the GI50 [57] was greater than 100 µM. For the same molecule, the TGI [57] was greater than 100 µM, the GI50 [39] was 69.6 µM and the TGI [39] was greater than 100 µM. It also gave a GI50 [40] of 68.6 µM and a TGI [40] greater than 100 µM.
